# Activity calls are given as the source filed them.
# Experiments:
# Coagulation factor XII = molecular target: T1, Coagulation factor XII (Homo sapiens, UniProt P00748); test: Factor XIIa Dose Response Confirmation from Single Well HTS. [Related pubchem assays (depositor defined):AID701]; format: functional
# T1 sequence (P00748 whole entry): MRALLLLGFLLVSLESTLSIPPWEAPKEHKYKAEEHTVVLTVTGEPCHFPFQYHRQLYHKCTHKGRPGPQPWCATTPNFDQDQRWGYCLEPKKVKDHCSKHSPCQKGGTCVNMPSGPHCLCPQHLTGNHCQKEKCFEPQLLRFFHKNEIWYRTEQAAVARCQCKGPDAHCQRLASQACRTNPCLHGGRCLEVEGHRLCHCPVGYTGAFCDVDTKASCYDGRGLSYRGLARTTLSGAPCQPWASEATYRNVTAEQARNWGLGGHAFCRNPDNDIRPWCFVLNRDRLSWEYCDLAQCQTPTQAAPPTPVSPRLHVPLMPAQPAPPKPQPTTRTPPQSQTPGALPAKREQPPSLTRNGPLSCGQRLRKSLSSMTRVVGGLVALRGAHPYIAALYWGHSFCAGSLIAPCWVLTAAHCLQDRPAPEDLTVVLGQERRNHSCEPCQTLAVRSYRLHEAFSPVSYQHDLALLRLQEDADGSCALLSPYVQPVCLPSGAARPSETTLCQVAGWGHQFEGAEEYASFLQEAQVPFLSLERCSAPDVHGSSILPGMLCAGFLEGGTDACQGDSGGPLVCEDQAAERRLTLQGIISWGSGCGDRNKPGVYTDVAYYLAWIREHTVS
# [1] = inhibitors of firefly luciferase expression or activity, dose response, H4 neuroglioma cells, luminescence (AID 1990); format: functional, cell-based
# [2] = system: Streptococcus sp. 'group A'; test: growth inhibition of control SK(-) GAS strain, dose response, counter-screen for streptokinase expression inhibitor project, luminescence, kanamycin, BacTiterGlo, confirmation (AID 1900); format: functional, organism-based
# [3] = Luminescence Cell-Based Dose Response HTS to Identify Inhibitors of 5'UTR Stem-Loop Driven Prion Protein mRNA Translation in H4 Neuroglioblastoma Cells. [Related pubchem assays: 1827 (Project Summary), 1813 (Primary HTS)]; format: functional
# [4] = inhibitors of SNCA 5'UTR-driven reporter translation, confirmation, H4 neuroglioma cells, luminescence (AID 1988); format: functional, cell-based
# Streptokinase A = molecular target: T2, Streptokinase A (Streptococcus pyogenes serotype M1, UniProt P10520); test: S. pyogenes streptokinase expression inhibitors, potency, dose response, plasminogen activation absorbance, OD405 (AID 1914); format: functional, Streptococcus pyogenes M1 GAS;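 further: secreted streptokinase activity via plasminogen activation per viability signal from cell pellet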
# T2 sequence (P10520 whole entry): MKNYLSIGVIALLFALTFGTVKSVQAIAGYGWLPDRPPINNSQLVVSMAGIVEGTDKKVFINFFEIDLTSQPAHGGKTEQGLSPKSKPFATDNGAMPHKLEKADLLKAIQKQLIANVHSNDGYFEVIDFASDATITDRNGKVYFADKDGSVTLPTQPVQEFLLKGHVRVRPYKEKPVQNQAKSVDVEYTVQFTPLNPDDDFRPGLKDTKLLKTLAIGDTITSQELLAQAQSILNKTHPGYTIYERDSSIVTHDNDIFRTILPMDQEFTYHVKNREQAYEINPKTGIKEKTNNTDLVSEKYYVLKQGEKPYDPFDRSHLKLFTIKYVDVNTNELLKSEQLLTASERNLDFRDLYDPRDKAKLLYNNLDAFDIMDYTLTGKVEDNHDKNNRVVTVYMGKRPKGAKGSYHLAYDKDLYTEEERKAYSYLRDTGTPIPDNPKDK
# [5] = inhibitors of intracellular T. cruzi replication, confirmation, NIH3T3 host cells, beta-gal luminescence (AID 2044); format: functional, cell-based;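 further: intracellular parasites grown in NIH/3T3 mouse fibroblasts as host cells; luminescent beta-galactosidase reporter signal from transgenic T. cruzi replicating inside host cells; inhibitors lower the luminescence signal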
# [6] = microbe, parasite or virus in culture; format: functional; conditions: Mycobacterium tuberculosis
# [7] = growth suppression of PTEN-null colon cells, dose response, cell-based, HCT116 PTEN knockout (AID 1047); format: functional;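 further: HCT116 colon tumor cells with PTEN knocked out; cells exposed to compound for 60 hours before readout; potency for loss of cell viability measured by luminescence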
# [8] = cytotoxicity toward NIH3T3 fibroblasts, dose response, counter-screen, cell-based, ATP luminescence, mouse fibroblasts (AID 2010); format: functional;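 further: cells exposed to compound for about 90 hours before reading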
# [9] = growth suppression of beta-catenin-knockout colon cells, dose response, cell-based, HCT116, human colon tumor (AID 1045); format: functional;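 further: HCT116 colon tumor cells with beta catenin knocked out; cells exposed to compound for 60 hours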
# Streptococcus = test: Group A Streptococcus viability loss, dose response, counter-screen for streptokinase expression inhibitor project, luminescence, BacTiterGlo (AID 1915); format: functional, organism-based;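 further: potency for reduction of bacterial viability or growth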
# [10] = molecular target: Glucose-6-phosphate 1-dehydrogenase (Homo sapiens, UniProt P11413); test: human G6PD enzyme inhibitors, dose response, selectivity assay for P. falciparum G6PD inhibitor project, biochemical, fluorescence (AID 504792); format: functional
# Chain of Glucose-6-phosphate 1-dehydrogenase (P11413 whole entry): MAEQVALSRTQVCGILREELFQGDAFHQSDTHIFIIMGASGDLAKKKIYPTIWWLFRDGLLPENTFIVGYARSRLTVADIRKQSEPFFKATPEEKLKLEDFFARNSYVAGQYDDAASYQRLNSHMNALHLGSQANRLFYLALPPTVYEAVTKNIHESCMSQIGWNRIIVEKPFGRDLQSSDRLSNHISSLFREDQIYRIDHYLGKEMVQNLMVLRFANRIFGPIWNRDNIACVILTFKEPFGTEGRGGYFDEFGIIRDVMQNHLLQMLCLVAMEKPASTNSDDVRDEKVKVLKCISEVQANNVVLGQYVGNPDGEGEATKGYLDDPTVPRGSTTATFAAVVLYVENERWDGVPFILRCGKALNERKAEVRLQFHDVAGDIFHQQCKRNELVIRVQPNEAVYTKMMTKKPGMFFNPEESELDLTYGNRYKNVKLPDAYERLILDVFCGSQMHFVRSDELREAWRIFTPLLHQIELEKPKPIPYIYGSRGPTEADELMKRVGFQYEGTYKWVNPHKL
# [11] = Intein inhibitors as potential Tuberculosis drugs, a cytotoxicity screen. [Related pubchem assays (depositor defined):AID2221, AID2223, AID434968, AID435010, AID449749, AID449750, AID489010]; format: functional
# [12] = molecular target: T3, Replicative DNA helicase DnaB (Mycobacterium tuberculosis, UniProt P9WMR3); test: DnaB intein splicing inhibitors, dose response, biochemical, cell-free fluorescence (AID 449749); format: functional
# T3 sequence (P9WMR3 whole entry): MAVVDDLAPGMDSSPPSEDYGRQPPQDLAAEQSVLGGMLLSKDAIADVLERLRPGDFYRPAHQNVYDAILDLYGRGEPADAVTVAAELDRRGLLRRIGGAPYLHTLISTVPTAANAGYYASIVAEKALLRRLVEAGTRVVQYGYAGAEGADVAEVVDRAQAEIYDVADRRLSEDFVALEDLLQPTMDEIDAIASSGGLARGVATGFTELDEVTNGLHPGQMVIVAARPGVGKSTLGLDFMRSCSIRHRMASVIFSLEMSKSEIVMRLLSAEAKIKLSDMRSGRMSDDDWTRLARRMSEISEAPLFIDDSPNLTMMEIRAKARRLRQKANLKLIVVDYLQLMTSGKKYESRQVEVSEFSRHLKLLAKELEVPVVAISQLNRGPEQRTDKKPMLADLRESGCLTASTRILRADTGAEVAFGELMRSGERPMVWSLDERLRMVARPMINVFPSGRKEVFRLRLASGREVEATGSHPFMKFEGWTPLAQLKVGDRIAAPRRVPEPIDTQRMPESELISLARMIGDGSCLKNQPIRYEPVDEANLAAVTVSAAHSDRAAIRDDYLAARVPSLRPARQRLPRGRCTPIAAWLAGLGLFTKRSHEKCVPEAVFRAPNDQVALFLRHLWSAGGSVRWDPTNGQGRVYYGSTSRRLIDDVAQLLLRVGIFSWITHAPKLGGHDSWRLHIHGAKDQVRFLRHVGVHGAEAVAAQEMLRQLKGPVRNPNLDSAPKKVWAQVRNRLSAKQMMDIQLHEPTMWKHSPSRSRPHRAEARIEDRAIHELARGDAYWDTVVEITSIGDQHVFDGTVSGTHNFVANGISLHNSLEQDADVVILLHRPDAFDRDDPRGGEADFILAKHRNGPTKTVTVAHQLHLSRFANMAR
# Protein RecA = molecular target: T4, Protein RecA (Mycobacterium tuberculosis, UniProt P9WHJ3); test: Fluorescence Cell-Free Homogeneous Dose Retest to Identify Inhibitors of RecA-Intein Splicing Activity. [Related pubchem assays (depositor defined):AID2097, AID2223, AID489010, AID492950]; format: functional
# T4 sequence (P9WHJ3 whole entry): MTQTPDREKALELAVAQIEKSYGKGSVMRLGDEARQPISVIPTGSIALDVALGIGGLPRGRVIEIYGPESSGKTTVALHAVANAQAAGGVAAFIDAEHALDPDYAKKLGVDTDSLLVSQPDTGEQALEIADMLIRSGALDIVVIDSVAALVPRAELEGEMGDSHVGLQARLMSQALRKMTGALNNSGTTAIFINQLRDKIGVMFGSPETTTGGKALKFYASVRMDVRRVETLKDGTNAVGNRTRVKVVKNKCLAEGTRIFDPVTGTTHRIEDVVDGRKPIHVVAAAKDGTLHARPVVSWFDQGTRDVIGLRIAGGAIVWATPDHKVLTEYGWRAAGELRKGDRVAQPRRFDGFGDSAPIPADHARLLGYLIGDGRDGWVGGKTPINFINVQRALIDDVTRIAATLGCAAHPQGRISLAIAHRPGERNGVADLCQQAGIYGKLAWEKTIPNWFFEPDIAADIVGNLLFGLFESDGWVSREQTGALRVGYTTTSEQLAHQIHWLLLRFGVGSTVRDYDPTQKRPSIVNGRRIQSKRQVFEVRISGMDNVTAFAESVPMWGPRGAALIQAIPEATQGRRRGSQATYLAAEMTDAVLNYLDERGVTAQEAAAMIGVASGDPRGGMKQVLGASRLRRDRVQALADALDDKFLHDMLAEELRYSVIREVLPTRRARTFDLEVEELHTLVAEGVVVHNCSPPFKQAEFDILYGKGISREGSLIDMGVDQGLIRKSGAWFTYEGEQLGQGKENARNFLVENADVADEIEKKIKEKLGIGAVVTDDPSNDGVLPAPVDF
# [13] = molecular target: Photoreceptor-specific nuclear receptor (Homo sapiens, UniProt Q9Y5X4); format: functional, cell-based;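 further: CHO-S cells with Gal4-NCOR and VP16-NR2E3 two-hybrid luciferase reporter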
# Chain of Photoreceptor-specific nuclear receptor (Q9Y5X4 whole entry, the tested form may be a part): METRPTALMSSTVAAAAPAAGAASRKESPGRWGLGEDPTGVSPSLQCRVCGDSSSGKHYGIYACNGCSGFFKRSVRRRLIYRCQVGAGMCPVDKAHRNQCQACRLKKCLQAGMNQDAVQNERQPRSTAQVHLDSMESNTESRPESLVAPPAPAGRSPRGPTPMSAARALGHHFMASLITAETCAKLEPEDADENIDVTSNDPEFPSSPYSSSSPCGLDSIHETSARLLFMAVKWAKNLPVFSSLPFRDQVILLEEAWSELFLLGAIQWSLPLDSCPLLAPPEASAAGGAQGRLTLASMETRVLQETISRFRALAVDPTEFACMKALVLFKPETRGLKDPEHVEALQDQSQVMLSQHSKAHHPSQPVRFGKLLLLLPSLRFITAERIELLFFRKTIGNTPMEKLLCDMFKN
# [14] = molecular target: T5, E3 ubiquitin-protein ligase XIAP (Homo sapiens, UniProt P98170); test: Counter Screen using XIAP-Bir3 for Chemical Antagonists of Bir1/2 domains of IAP-family anti-apoptotic proteins. [Related pubchem assays (depositor defined):AID1018, AID1449, AID1514, AID1638, AID1749, AID1750, AID488957, AID488963]
# T5 sequence (P98170 whole entry): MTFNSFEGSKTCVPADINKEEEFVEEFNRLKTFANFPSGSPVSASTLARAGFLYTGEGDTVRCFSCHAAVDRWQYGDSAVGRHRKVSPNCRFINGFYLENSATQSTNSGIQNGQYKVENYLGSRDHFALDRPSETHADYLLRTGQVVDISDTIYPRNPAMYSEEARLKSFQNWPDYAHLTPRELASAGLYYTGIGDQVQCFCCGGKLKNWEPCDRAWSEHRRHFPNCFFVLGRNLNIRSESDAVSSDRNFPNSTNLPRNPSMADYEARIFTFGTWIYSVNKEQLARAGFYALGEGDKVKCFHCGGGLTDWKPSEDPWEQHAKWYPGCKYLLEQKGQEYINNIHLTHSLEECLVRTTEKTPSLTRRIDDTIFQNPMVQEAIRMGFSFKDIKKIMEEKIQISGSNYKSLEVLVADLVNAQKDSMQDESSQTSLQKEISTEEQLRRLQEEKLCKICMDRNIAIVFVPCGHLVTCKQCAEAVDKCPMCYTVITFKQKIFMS
# [15] = molecular target: T5, E3 ubiquitin-protein ligase XIAP; test: XIAP antagonists, biochemical, IAP family, fluorescence polarization (AID 1018); format: functional
# [16] = molecular target: Intestinal-type alkaline phosphatase (Mus musculus, UniProt P24822); test: PubChem AID 488875; format: functional
# Chain of Intestinal-type alkaline phosphatase (Mus musculus, UniProt P24822) (P24822 whole entry): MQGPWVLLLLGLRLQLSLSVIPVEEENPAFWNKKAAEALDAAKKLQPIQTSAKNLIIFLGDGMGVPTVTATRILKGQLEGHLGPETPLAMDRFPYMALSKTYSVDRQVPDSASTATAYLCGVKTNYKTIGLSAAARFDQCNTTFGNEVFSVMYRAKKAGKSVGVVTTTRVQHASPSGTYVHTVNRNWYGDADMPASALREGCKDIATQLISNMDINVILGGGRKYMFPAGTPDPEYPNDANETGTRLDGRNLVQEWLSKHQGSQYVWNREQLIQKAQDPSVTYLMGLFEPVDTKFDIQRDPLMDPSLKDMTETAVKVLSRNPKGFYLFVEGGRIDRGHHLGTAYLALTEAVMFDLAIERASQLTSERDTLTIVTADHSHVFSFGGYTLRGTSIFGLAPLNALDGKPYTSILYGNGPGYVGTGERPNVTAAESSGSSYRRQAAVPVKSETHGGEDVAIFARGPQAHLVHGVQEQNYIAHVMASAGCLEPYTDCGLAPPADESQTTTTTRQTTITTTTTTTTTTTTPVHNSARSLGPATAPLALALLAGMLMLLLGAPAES
# [17] = molecular target: T6, Intestinal-type alkaline phosphatase (Homo sapiens, UniProt P09923); test: human intestinal alkaline phosphatase activators, dose response, biochemical, luminescence, uHTS hits (AID 463120); format: functional
# T6 sequence (P09923 whole entry): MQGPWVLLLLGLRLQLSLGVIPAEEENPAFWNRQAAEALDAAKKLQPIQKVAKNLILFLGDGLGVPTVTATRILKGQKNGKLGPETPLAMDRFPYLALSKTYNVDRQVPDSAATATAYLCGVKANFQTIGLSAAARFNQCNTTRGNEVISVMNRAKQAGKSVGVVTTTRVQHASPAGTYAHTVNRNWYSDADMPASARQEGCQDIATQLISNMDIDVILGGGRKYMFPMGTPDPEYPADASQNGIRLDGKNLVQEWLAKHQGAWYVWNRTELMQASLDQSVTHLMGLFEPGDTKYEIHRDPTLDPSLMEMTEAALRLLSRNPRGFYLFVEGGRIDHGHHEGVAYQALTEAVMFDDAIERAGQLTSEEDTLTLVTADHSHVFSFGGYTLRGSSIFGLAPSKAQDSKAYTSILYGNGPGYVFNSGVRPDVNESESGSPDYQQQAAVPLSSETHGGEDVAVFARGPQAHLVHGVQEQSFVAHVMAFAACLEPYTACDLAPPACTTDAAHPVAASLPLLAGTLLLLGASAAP
# [18] = molecular target: Alkaline phosphatase, placental type (Homo sapiens, UniProt P05187); test: PLAP enzyme inhibitors, confirmation, biochemical, luminescence (AID 1512); format: functional
# Chain of Alkaline phosphatase, placental type (P05187 whole entry): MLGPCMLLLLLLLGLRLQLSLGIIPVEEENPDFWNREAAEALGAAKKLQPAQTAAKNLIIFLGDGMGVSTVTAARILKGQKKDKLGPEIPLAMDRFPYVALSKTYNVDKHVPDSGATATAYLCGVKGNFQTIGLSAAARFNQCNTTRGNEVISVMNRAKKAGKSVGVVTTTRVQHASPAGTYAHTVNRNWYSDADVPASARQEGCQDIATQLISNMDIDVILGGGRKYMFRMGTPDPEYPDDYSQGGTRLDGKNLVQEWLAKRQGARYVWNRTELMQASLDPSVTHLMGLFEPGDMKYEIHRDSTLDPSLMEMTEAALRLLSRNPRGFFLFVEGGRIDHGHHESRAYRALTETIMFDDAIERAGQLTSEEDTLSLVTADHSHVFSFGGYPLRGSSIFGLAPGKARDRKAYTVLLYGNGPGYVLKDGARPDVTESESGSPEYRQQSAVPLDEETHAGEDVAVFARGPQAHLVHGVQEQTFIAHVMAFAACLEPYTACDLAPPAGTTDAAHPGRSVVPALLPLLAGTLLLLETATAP
# [19] = molecular target: T6, Intestinal-type alkaline phosphatase; test: human IAP activators, dose response, biochemical, luminescent, uHTS hits, set 2 (AID 488817); format: functional;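 further: potency of activators that raise enzyme activity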
# [20] = molecular target: T7, Runt-related transcription factor 1/Core-binding factor subunit beta (Homo sapiens, UniProt Q01196+Q13951); test: inhibitors of RUNX1 Runt–CBFb-SMMHC binding, primary screen, biochemical, FRET, Cerulean-Runt, Venus-CBFb-SMMHC, uHTS (AID 1434); format: protein assay;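 further: partner is the CBFb-SMMHC leukemia fusion protein rather than wild-type CBFb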
# T7 sequence (Q01196 whole entry, the tested form may be a part): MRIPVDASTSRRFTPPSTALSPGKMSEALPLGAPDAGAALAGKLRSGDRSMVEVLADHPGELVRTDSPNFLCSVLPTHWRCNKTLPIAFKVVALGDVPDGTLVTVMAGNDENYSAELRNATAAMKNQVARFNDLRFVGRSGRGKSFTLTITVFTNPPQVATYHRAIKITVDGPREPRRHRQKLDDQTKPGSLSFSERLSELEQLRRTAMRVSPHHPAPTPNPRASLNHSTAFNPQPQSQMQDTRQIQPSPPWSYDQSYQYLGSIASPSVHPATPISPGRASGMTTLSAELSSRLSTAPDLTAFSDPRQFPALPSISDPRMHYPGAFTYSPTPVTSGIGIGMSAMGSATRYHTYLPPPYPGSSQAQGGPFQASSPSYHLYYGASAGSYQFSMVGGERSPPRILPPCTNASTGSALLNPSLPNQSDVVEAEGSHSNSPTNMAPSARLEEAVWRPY
# T7 sequence (Q13951 whole entry, the tested form may be a part): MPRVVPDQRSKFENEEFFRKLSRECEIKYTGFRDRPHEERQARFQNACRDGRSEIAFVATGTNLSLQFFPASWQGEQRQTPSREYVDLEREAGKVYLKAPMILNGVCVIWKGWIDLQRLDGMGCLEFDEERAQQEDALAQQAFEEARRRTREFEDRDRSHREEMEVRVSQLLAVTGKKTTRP
# [21] = molecular target: T7, Runt-related transcription factor 1/Core-binding factor subunit beta; test: inhibitors of RUNX1 Runt–CBFb-SMMHC binding, biochemical, TR-FRET (AID 1438); format: protein assay
# Integrin alpha-L = Integrin alpha-L (Mus musculus, UniProt P24063); test: modulators of CD8 T cell-vesicle binding, dose response, powder samples, mouse 2C CD8+ cells (AID 504565); format: functional
# Chain of Integrin alpha-L (P24063 whole entry): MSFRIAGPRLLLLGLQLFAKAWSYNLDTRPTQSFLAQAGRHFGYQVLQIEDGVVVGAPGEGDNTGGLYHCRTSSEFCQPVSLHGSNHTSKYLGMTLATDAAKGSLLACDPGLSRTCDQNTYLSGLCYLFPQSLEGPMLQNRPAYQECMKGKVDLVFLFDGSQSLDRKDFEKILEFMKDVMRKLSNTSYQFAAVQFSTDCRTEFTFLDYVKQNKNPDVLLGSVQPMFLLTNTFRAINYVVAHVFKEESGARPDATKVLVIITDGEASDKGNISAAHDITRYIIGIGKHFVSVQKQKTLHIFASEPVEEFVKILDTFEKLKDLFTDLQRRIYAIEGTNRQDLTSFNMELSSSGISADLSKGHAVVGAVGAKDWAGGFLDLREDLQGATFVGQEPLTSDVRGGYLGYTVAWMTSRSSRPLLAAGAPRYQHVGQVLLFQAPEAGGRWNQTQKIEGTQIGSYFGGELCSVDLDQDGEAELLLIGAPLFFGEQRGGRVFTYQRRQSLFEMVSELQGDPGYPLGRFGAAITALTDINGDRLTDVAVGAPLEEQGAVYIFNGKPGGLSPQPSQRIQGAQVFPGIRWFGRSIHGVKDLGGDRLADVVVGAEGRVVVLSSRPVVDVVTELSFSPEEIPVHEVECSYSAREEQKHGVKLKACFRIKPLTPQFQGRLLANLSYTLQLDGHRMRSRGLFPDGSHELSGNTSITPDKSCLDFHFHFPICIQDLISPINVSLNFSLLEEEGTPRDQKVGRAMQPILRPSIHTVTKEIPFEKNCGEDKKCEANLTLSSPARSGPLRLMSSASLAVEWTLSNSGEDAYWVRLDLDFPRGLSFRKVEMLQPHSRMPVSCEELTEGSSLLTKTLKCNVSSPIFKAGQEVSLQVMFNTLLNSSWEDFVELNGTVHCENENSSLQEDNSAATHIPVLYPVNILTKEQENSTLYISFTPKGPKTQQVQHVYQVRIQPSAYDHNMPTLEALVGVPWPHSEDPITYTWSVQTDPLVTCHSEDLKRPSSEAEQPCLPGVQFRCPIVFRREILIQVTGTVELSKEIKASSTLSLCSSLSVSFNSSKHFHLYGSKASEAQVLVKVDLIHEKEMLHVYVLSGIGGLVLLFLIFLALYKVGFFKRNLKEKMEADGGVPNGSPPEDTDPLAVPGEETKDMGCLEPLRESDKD
# T-cell = test: inhibitors of CD8+ T cell–vesicle binding, dose response, mouse 2C CD8+ T cells, flow cytometry (AID 485284); format: functional
# [22] = Shn3 3'UTR reporter inhibitors, dose response, cell-based, Clone20 osteoblasts, firefly luciferase, cherry-picked (AID 624132); format: functional;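 further: firefly luciferase luminescence from reporter carrying the Shn3 3'UTR in osteoblasts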
# [23] = control 3'UTR Renilla luciferase suppression, dose response, counter-screen for Shn3 inhibitor project, cell-based, Clone20-Shn3RL, cherry-picked (AID 624133); format: functional
# [24] = molecular target: T8, Type-1 angiotensin II receptor (Homo sapiens, UniProt P30556); test: AT1 receptor agonists, dose response, selectivity assay for APJ receptor agonist project, cell-based, uHTS hits (AID 488865); format: functional;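 further: beta-arrestin recruitment to AT1 measured by enzyme fragment complementation luminescence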
# T8 sequence (P30556 whole entry): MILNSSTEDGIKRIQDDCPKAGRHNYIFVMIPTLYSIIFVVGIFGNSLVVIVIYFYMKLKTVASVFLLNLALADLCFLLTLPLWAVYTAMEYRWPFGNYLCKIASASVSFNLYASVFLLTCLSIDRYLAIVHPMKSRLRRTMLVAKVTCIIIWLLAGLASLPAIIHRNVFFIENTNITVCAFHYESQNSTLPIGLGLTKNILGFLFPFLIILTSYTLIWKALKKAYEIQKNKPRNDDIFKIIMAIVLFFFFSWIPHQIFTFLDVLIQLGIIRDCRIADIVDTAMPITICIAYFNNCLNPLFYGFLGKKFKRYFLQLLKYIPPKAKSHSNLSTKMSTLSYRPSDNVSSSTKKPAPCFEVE
structure (smiles),measurement,setting,value
O=C1N=C(c2ccccc2)S/C1=C\c1cccs1,IC50,Coagulation factor XII,> 50 µM (inactive)
COc1ccc(C(=O)c2c(C(F)(F)F)oc3c2C(=O)c2ccccc2C3=O)cc1OC,EC50,[1],> 120 µM (not active)
same,EC50,[2],0.514 µM (active)
same,EC50,[3],> 120 µM (not active)
same,EC50,[4],8.35 µM (active)
same,EC50,Streptokinase A,> 150 µM (not active)
same,EC50,[5],0.884 µM (active)
same,CC50,[6],6.08 µM (active)
same,EC50,[7],2.34 µM (active)
same,EC50,[8],5.27 µM (active)
same,EC50,[9],2.23 µM (active)
same,EC50,Streptococcus,8.91 µM (active)
same,IC50,[10],> 80 µM (inactive)
same,CC50,[11],5.78 µM (active)
same,AC50,[12],4.74 µM (active)
same,EC50,Protein RecA,2.02 µM (active)
same,IC50,[13],1.99 µM (active)
CC(C)C(NC(=O)CN1C(=O)c2ccccc2S1(=O)=O)C(C)C,IC50,[14],> 100 µM (inactive)
same,IC50,[15],> 100 µM (not active)
Cc1cc(C)cc(OCC(=O)NNC(=O)c2cc(C)n[nH]2)c1,EC50,[16],> 100 µM (inactive)
same,EC50,[17],12.7 µM (active)
same,IC50,[18],> 100 µM (inactive)
same,EC50,[19],16.1 µM (active)
Cc1cc2n(n1)C(c1ccc(N(C)C)cc1)Nc1ccccc1-2 (stereo not given),IC50,[20],48.3 µM (active)
same,IC50,[21],> 100 µM (inactive)
COCc1c(C(=O)Nc2cccc(S(=O)(=O)N3CCCCC3)c2)oc2ccccc12,EC50,Integrin alpha-L,24.7 µM (inactive)
same,EC50,T-cell,50.8 µM (inactive)
same,AC50,[22],9.63 µM (active)
same,AC50,[23],26.4 µM (active)
CCN1C(c2ccccc2)=C(c2ccccc2)S/C1=C\C=C1/SC(=S)N(C)C1=O,EC50,[24],7.44 µM (active)

# Reference: ChEMBL document CHEMBL1201862, “PubChem BioAssay data set” (2004)
